Measured values from US8592452B2, “Cyclic amine compound” (Takeda Pharmaceutical Company Limited, priority 2005, dated 2013).
Where a chain is given by its changes, count along the chain named. Read-outs that look alike come from different tables or passages of the source.

Tests used:
AR (wild-type) [1] = biological target: T1, AR (wild-type) (Homo sapiens, UniProt P10275); assay: Reporter assay system using Cos7 cell, luciferase under androgen responsive promoter of two tandem PSA promoter regions; assay type: cell-based; details: 100 nM compound, 24 hr, luciferase activity with 1 μM 5α-dihydrotestosterone as 100
T1 construct: expressed in transfected cells; host or cells: Cos-7
T1 sequence (P10275 1-920): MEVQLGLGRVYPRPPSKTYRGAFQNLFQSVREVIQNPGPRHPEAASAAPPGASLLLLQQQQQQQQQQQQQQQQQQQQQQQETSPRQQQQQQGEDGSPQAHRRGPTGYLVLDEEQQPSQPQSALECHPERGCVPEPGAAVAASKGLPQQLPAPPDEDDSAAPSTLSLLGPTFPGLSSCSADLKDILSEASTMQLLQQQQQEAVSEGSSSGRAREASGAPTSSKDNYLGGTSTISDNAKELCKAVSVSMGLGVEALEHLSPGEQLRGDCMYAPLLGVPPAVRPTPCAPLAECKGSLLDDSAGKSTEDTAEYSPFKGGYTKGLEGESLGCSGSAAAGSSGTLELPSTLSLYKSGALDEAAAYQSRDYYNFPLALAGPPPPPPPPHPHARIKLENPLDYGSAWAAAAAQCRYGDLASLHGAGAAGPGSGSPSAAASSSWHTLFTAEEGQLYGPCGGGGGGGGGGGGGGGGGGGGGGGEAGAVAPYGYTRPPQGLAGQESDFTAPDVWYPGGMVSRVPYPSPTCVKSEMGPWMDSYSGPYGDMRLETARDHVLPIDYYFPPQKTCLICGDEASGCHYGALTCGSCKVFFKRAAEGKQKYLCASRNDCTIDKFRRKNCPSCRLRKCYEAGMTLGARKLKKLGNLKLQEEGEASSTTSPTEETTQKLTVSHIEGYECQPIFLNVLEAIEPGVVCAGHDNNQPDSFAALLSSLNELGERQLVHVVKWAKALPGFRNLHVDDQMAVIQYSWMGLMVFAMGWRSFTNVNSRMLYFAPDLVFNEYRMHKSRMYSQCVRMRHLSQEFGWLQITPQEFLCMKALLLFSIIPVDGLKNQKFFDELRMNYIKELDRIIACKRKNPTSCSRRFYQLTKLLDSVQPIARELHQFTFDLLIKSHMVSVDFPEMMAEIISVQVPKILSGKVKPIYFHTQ
Description: Cos-7 (5,000,000 cells) were sown in a flask (150 cm^2), and cultured in a culture medium (DMEM medium containing 10% Dextran Charcoal (DCC)-Fetal Bovine Serum (FBS) and 2 mM glutamine) for 24 hr. A vector DNA containing AR gene, and a vector DNA prepared by binging luciferase gene at the downstream of an androgen responsive promoter prepared by ligating two PSA promoter regions in tandem were co-transfected by the liposome method. After culture for 2 hr, the cells were harvested, 10,000 cells were plated on a 96 well plate and cultured for 3 hr, after which 1 μM of 5α-dihydrotestosterone or 100 nM of a compound was added thereto. After culture for 24 hr, luciferase activity was determined. The induction rate by the compound was determined with the luciferase activity induced by addition of 1 μM of 5α-dihydrotestosterone as 100.

[2] = biological target: T2, AR having LNCaP-type mutation (Homo sapiens, UniProt P10275, T878A); assay: AR binding inhibitory test (LNCaP-type), radiolabeled mibolerone; details: 100 nM compound, 3 nM radiolabeled mibolerone, 4° C. 3 hr
T2 sequence (P10275 1-920 T878A): T1 sequence (P10275 1-920) with T878A
Description: (§1) To a solution containing a wild-type androgen receptor (AR) or AR having LNCaP-type mutation were added 3 nM radiolabeled mibolerone and 100 nM compound. After the solution was incubated at 4° C. for 3 hr, B (Bound)/F (Free) separation was performed by the dextran/charcoal method. The label count of B was measured, and the inhibitory rate of the compound was calculated.

[3] = tested on: human prostate cancer cell line LNCaP-FGC; assay: PSA production test in human prostate cancer cell line; assay type: cell-based; details: 3 days, vehicle as 0, 350 nM testosterone as 100, test compound final concentration 0.1-1000 nM (concentration not given)
Description: The human prostate cancer cell line LNCaP-FGC was plated on a 96 well plate at 5,000 cells/100 μL/well. The next day, a test compound (final concentration 0.1-1000 nM), or a vehicle (control) or testosterone (final concentration 0.35-350 nM) was added thereto, and the culture supernatant was recovered 3 days after the drug addition. The concentration of PSA (Prostate Specific Antigen) produced in an androgen-dependent manner in the culture supernatant was measured by ELISA. The PSA production promotion rate by the test compound was calculated with vehicle addition group as 0 and 350 nM testosterone addition group as 100.

[4] = biological target: T3, wild-type androgen receptor (AR) (Homo sapiens, UniProt P10275); assay: AR binding inhibitory test (wild-type), radiolabeled mibolerone; details: 100 nM compound, 3 nM radiolabeled mibolerone, 4° C. 3 hr, read-out: Inhibitory rate (%) at 100 nM wild-type
T3 sequence (P10275 1-920): T1 sequence (P10275 1-920)
Description: as §1

AR (wild-type) [5] = biological target: T1, AR (wild-type); assay: Reporter assay system using Cos7 cell, luciferase under MMTV-derived androgen responsive promoter; assay type: cell-based; details: 100 nM compound, 24 hr, luciferase activity with 1 μM 5α-dihydrotestosterone as 100
Description: Cos-7 (5,000,000 cells) were sown in a flask (150 cm^2), and cultured in a culture medium (DMEM medium containing 10% Dextran Charcoal (DCC)-Fetal Bovine Serum (FBS) and 2 mM glutamine) for 24 hr. A vector DNA containing AR gene, and a vector DNA prepared by binging luciferase gene at the downstream of an MMTV (Mouse Mammary Tumor Virus)-derived androgen responsive promoter were co-transfected by the liposome method. After culture for 2 hr, the cells were harvested, 10,000 cells were plated on a 96 well plate and cultured for 3 hr, after which 1 μM of 5α-dihydrotestosterone or 100 nM of a compound was added. After culture for 24 hr, luciferase activity was determined. The induction rate by the compound was determined with the luciferase activity induced by addition of 1 μM of 5α-dihydrotestosterone as 100.

[6] = Table 3, read-out: Inhibitory rate (%) at 100 nM LNCaP-type
[7] = Table 6, read-out: Inhibitory rate (%) at 100 nM LNcap-type

SMILES | Induction rate (%) at 100 nM wild-type (AR (wild-type) [1]) | inhibition at 0.1 µM [2, 6] | PSA production promotion rate (%) [3] | inhibition at 0.1 µM ([4]; Table 3) | Induction rate (%) at 100 nM wild-type (AR (wild-type) [5]) | inhibition at 0.1 µM [2, 7] | inhibition at 0.1 µM ([4]; Table 6)
Cc1c(N2CC[C@H](C(C)(C)O)[C@@H]2C)ccc(C#N)c1Cl [Compound 2, 2-chloro-4-[(2S,3S)-3-(1-hydroxy-1-methylethyl)-2-methylpyrrolidin-1-yl]-3-methylbenzonitrile] | 71% | 99% | 103% | 99% | – | – | –
C[C@H]1[C@@H](C(C)(C)O)CCN1c1ccc(C#N)cc1C(F)(F)F [Compound 80, 4-[(2S,3S)-3-(1-hydroxy-1-methylethyl)-2-methylpyrrolidin-1-yl]-3-(trifluoromethyl)benzonitrile] | – | – | – | – | 22% | 95% | 97%
C[C@H]1[C@@H](C(C)(C)O)CCN1c1ccc(C#N)c(Cl)c1Cl [Compound 75, 2,3-dichloro-4-[(2S,3S)-3-(1-hydroxy-1-methylethyl)-2-methylpyrrolidin-1-yl]benzonitrile] | – | – | – | – | 60% | 99% | 99%
C[C@H]1[C@@H](C(C)(C)O)CCN1c1ccc(C#N)c(Cl)c1F [Compound 53, 2-chloro-3-fluoro-4-[(2S,3S)-3-(1-hydroxy-1-methylethyl)-2-methylpyrrolidin-1-yl]benzonitrile] | – | – | – | – | 33% | 98% | 98%
C[C@H]1[C@@H](C(C)(C)O)CCN1c1ccc(C#N)c(Cl)c1 [Compound 3, 2-chloro-4-[(2S,3S)-3-(1-hydroxy-1-methylethyl)-2-methylpyrrolidin-1-yl]benzonitrile] | 57% | 99% | 81% | 98% | – | – | –
C[C@H]1[C@@H](C(C)(C)O)CCN1c1ccc(C#N)c(Br)c1 [Compound 71, 2-bromo-4-[(2S,3S)-3-(1-hydroxy-1-methylethyl)-2-methylpyrrolidin-1-yl]benzonitrile] | – | – | – | – | 31% | 97% | 99%
CC(C)[C@H]1[C@@H](O)CCN1c1ccc(C#N)c(C(F)(F)F)c1 [Compound 82, 4-[(2S,3S)-3-hydroxy-2-isopropylpyrrolidin-1-yl]-2-(trifluoromethyl)benzonitrile] | – | – | – | – | 90% | 97% | 98%
